Entries after “also recorded” stand apart in the source; their conditions may differ.
Key:
[1] = tested on: SV 40 infected human keratinocytes; test: Cornified envelope (cross-linked protein) assay, SV 40 infected keratinocytes; format: cell-based; conditions: 48 h, 0.1-1 mM
Excerpt: (§1) FIG. 1. MC Increases Cross-linked Protein in Epidermal Cell Lines. Black squares represent HPV 18 human epithelial keratinocytes; black circles represent SV 40 infected human keratinocytes; black triangles represent (SQCC-Y1) cells; white triangles represent (SP-1) benign tumor mouse keratinocytes; white squares represent (308 cells) benign mouse keratinocytes; and white circles represent (I-7) cells mouse squamous cell carcinoma.
(§2) Primary mouse keratinocytes were isolated from BALB/c newborn mouse skin. Primary keratinocytes, the benign neoplastic keratinocyte cell lines 308 and SP-1 (Strickland et al, Cancer Res., 48, 165-169, 1988) and the mouse squamous cell carcinoma line 1-7 (Greenhalgh et al., Proc. Natl. Acad. Sci., 87, 643-647, 1990) were grown in Eagle's minimal essential medium with 8% fetal calf serum (FCS) (chelexed) and penicillin 20 iu/ml, streptomycin 20 ug/ml (P/S). Unless otherwise indicated, the Ca^2+ concentration in medium was adjusted to 0.05 mM (Hennings et al., Cells, 19, 245-254, 1980). […]
(§3) Cells were incubated with MC for 48 hours, then cross-linked protein was isolated and measured as described in Example 1.
(§4) The assay measures insoluble cross-linked protein envelopes as described (Hough-Monroe et al. Analytical biochem., 199, 25-28, 1991), with modifications as follows. […] Absorbance of eluate was measured on a Titertek plate reader at 600 nm.

[2] = tested on: I-7 mouse squamous cell carcinoma cells; test: Cornified envelope (cross-linked protein) assay, I-7 cells; format: cell-based; conditions: I-7 (carcinoma), 48 h, 0.1-1 mM
Excerpt: as §1, §2, §3, §4

[3] = tested on: normal human epidermal keratinocytes from foreskin; test: Cross-linking in primary normal human epidermal keratinocytes; format: cell-based; conditions: Keratinocyte, read-out: concentration for response in cross-linking
Excerpt: The increased sensitivity of mouse primary keratinocytes for the cross-linking effect is not related to the normal phenotype. […] Hydroxylated aromatic protein crosslinking compounds induce the cross-linking of cell proteins into cornified envelope-like structures, causing cell death by a non-biological mechanism which emulates the normal differentiation program of epidermal keratinocytes. In addition to their growth inhibitory properties, the unique protein cross-linking ability of the class of compounds described in the instant invention proffers a new mechanism for the topical treatment of hyperproliferative diseases of the skin.

[4] = tested on: athymic nude mouse skin; test: Acute topical toxicity on athymic nude mouse skin; format: in vivo
Method: FIGS. 9A, 9B, 9C, 9D and 9E show color photographs. Topical Application of MC on Athymic Nude Mouse Skin. Histological sections were taken from paraffin-embedded tissue and were stained with hematoxylin and eosin. Panel a is vehicle control; panel b is 100 μM MC; panel c is 1 mM MC; panel d is 10 mM MC; and panel e is 100 mM MC. Magnification is 200x.
FIGS. 13A, 13B and 13C show color photographs of mice. […] Photographs were taken after animal sacrifice upon termination of the experiments.
Acute topical toxicity of MC was assessed by its application to athymic mouse skin and observation for inflammation, ulceration or other signs of toxicity after 5x weekly applications for 2 weeks and by microscopical analysis of paraffin-embedded sections of athymic mouse skin after MC application. Male nu/nu mice, 8 weeks old, were subdivided into 5 treatments groups and MC was administered topically in 10% DMSO in acetone vehicle. Mice were treated with a control vehicle, 100 μM MC, 1 mM MC, 10 mM MC or 100 mM MC. Treatment was 5 times per week for two weeks, after which animals were sacrificed and dorsal skin was fixed in Carnoy's solution at 4° C. for 24 hours followed by ethanol 100%. Histological sections were taken from paraffin-embedded tissue and were stained with hematoxylin and eosin. FIG. 13 illustrates the effect of MC on the skin of nude mice.
Male nu/nu mice, 8 weeks old, were subdivided into treatment groups and MC was administered topically to dorsal skin in 10% DMSO in acetone vehicle (25 μl). Treatment was 5 times per week for two weeks. […] MC itself is yellow-brown, so some discoloration would be expected due to drug deposition and accumulation at this high concentration.

[5] = tested on: transglutaminase; test: Transglutaminase activity in primary mouse keratinocytes; format: cell-based
Method: FIG. 7. […] Black columns represent untreated cells in 1.4 mM Ca^2+ medium; and hatched columns represent cells treated with 1 mM MC. Cytosol is represented by "C" and membrane fractions are represented by "M". Results are ±SD (n=2) and were repeated in a similar experiment.
One embodiment of the present invention uses an erbstatin analog, methyl 2,5-dihydroxycinnamate, which forms cross-linked protein envelopes in normal and neoplastic epithelial cells by a mechanism independent of tyrosine kinase inhibition. Methyl 2,5-dihydroxycinnamate (MC) is a tyrosine kinase inhibitor. To assess its ability to induce epithelial cell differentiation, crosslinked protein envelopes were measured after a 48 h incubation with agent. […] To confirm differentiation, MC-treated mouse primary keratinocytes were tested for transglutaminase (TGase) activity, inhibition of protein cross-linking by the TGase inhibitor LTB-2 and HPB-2 and incorporation of the fluorescent TGase substrate dansylcadaverine into envelopes. […] This effect, in concert with growth inhibitory properties, may be useful clinically in the topical treatment of warts or superficial neoplasias of the skin.
Mouse primary keratinocytes were incubated in medium with 1.4 mM Ca^2+ for the indicated times. MC-induced cross-linking commences within 4 hours (see FIG. 3). […]

[6] = tested on: 308 cells (benign neoplastic mouse keratinocytes); test: Cornified envelope (cross-linked protein) assay, 308 cells; format: cell-based; conditions: 308 (papilloma), 48 h, 0.1-1 mM
Excerpt: as §1, §2, §3, §4

[7] = tested on: EGF receptor; test: Western blot analysis of in vitro assay with EGF receptor; format: biochemical

COC(=O)C=Cc1cc(O)ccc1O [MC, methyl 2,5-dihydroxycinnamate]
cross-linked protein (envelope production) [1]: induced crosslinked envelope production; also recorded: increased cross-linked protein in a dose-dependent manner | cross-linked protein (envelope production) [2]: induced crosslinked envelope production; also recorded: increased cross-linked protein in a dose-dependent manner | minimal effective concentration [3]: ≥ 250 µM | microscopy: inflammatory infiltrates ([4]; mouse, in vivo): focal inflammatory infiltrates were visible | microscopy: necrosis ([4]; mouse, in vivo): no obvious necrosis | microscopy: vacuolation of epidermal cells ([4]; mouse, in vivo): some vacuolation of epidermal cells | systemic toxicity or changes in skin at the application site ([4]; mouse, in vivo): No changes were observed | acute toxicity or inflammation by microscopy ([4]; up to 10 mM, topical, normal athymic mouse skin): not acutely toxic or inflammatory | transglutaminase activity ([5]; 1 mM MC, 4 hrs, cytosol and membrane fractions): not stimulated; also recorded: does not Increase Transglutaminase Activity | involvement of transglutaminase in the mode of action ([5]; TGase activity, TGase inhibitors LTB-2 and HPB-2, dansylcadaverine incorporation): refuted the involvement of TGase | cross-linked protein (envelope production) [6]: induced crosslinked envelope production; also recorded: increased cross-linked protein in a dose-dependent manner | MC-induced mobility retardation of the EGF receptor, effect of DTT ([7]; DTT, Western blot): did inhibit MC-induced mobility retardation of the EGF receptor | tyrosine kinase inhibition in presence of DTT ([7]; effect of DTT on MC tyrosine kinase inhibition, in vitro): did not prevent tyrosine kinase inhibition

Source: US5610185A, “Method for the treatment of hyperproliferative epithelial skin diseases by topical application of hydroxylated aromatic protein cross-linking compounds” (The United States of America as represented by the …, priority 1995, dated 1997)
